Data from patent US6844020B2, “Solutions of carotenoids for use in foods and personal care products” (Kemin Foods, L.C., priority 2002, dated 2005).
Values joined by “and” are separate entries in the source; they are usually repeats but may differ in a detail not shown here. Identical values can stand only once. Like-named read-outs stand apart in the source and are kept apart here. Each block holds one compound with its values, some of them ahead of it.

Legend:
[1] = cited from earlier work
[2] = consumption of lutein and zeaxanthin; Seddon et al., 1994; cited from earlier work
[3] = Zeaxanthin solubility in essential oils; assay type: physicochemical
Method: Zeaxanthin was dissolved in each oil until visibly saturated. The sample was then blanketed with argon and sonicated for ten minutes. When the sample was completely saturated, the solution was transferred to a micro centrifuge tube and centrifuged at 14,000 rpm for 10 minutes. The clarified oil was then analyzed for zeaxanthin content. The method for analyzing lutein crystals was used to analyze zeaxanthin, however, a few modifications were made. First, methylene chloride was substituted for […] when dissolving the samples. […] When determining total carotenoids, the absorbance was measured at 450 nm rather than 446 nm. [formula] [formula] [formula]
% Zeaxanthin=% Carotenoids*(% Total HPLC area of zeaxanthin/100)

[4] = Beta-carotene solubility in essential oils; assay type: physicochemical
Method: Beta-carotene was dissolved in each oil until visibly saturated. The sample was then blanketed with argon and sonicated for ten minutes. When the sample was completely saturated, the solution was transferred to a micro centrifuge tube and centrifuged at 14,000 rpm for 10 minutes. The clarified oil was then analyzed for beta-carotene content. The method for analyzing lutein crystals, with a few modifications, was used to analyze beta-carotene. First, methylene chloride was substituted for […] when dissolving the samples. Second, when determining total carotenoids, the absorbance was measured at 453 nm rather than 446 nm. [formula] [formula] [formula]
% Beta Carotene=% Carotenoids*(% Total HPLC area of Beta Carotene/100)

[5] = Astaxanthin solubility in essential oils; assay type: physicochemical
Method: Astaxanthin was dissolved in each oil until visibly saturated. The sample was then blanketed with argon and sonicated for ten minutes. When the sample was completely saturated, the solution was transferred to a micro centrifuge tube and centrifuged at 14,000 rpm for 10 minutes. The clarified oil was then analyzed for astaxanthin content. The method for analyzing lutein crystals was used to analyze astaxanthin, however, a few modifications were made. First, methylene chloride was substituted for […] when dissolving the samples. […] When determining total carotenoids, the absorbance was measured at 470 nm rather than 446 nm. [formula] [formula] [formula] Canthaxanthin in Essentials Oils

[6] = assay type: physicochemical
Method: Canthaxanthin was dissolved in each oil until visibly saturated. The sample was then blanketed with argon and sonicated for ten minutes. When the sample was completely saturated, the solution was transferred to a microcentrifuge tube and centrifuged at 14,000 rpm for 10 minutes. The clarified oil was then analyzed for canthaxanthin content. The method for analyzing lutein crystals was used to analyze canthaxanthin, however, a few modifications were made. First, methylene chloride was substituted for […] when dissolving the samples. […] When determining total carotenoids, the absorbance was measured at 466 nm rather than 446 nm. [formula] [formula] Results and Discussion

[7] = in Bay oil, 50-6025-01, lot BA41-0484
[8] = in Cornmint, redistilled oil, 50-6100-01, lot CR43-0155
[9] = in Peppermint, Yakima redistilled oil, 50-6225-21, lot PY43-0157
[10] = in Spearmint, redistilled oil, 50-6250-11, lot 39SR-0163
[11] = in Tea Tree oil, 50-6270-01, lot TX43-0146
[12] = in Thyme, Pure oil, 50-6275-04, lot TP41-0053
[13] = in Thyme, Red oil, 50-6275-02, lot TR43-0158
[14] = in Thyme, White (NOW) oil, 7635
[15] = in Thyme, White oil, 50-6275-01, lot TLC11-T477
[16] = in Carvacrol (clear oil), 282-197, lot 13403CI
[17] = in Spearmint oil, 05-6250-11, lot SP43-0208
[18] = in Thyme oil, White, 05-6275-01, lot TLC11-T049

% Carotenoids [3, 7]: 0.281%
% Zeaxanthin [3, 7]: 0.276%
% Carotenoids [3, 8]: 0.403%
% Zeaxanthin [3, 8]: 0.397%
% Carotenoids [3, 9]: 0.452%
% Zeaxanthin [3, 9]: 0.446%
% Carotenoids [3, 10]: 0.374%
% Zeaxanthin [3, 10]: 0.369%
% Carotenoids ([3]; in Tea Tree (NOW) oil, 7625): 0.398%
% Zeaxanthin ([3]; in Tea Tree (NOW) oil, 7625): 0.394%
% Carotenoids [3, 11]: 0.364%
% Zeaxanthin [3, 11]: 0.361%
% Carotenoids [3, 12]: 0.920%
% Zeaxanthin [3, 12]: 0.916%
% Carotenoids [3, 13]: 1.063%
% Zeaxanthin [3, 13]: 1.059%
% Carotenoids [3, 14]: 0.784%
% Zeaxanthin [3, 14]: 0.782%
% Carotenoids [3, 15]: 1.049%
% Zeaxanthin [3, 15]: 1.043%
zeaxanthin solubility ([3]; in all of the oils except the thyme oils): less than 1%
zeaxanthin solubility ([3]; in thyme oil): ~1%
Compound: CC1=C(/C=C/C(C)=C/C=C/C(C)=C/C=C/C=C(C)/C=C/C=C(C)/C=C/C2=C(C)C[C@@H](O)CC2(C)C)C(C)(C)C[C@H](O)C1 [Zeaxanthin, zeaxanthin]
reported solubility ([1]; in corn oil): 0.004%
reduction in age-related macular degeneration [2]: 57%

% Beta-Carotene [4, 7]: 0.16% and 0.163%
% Beta-Carotene [4, 8]: 0.252%
% Beta-Carotene [4, 9]: 0.263%
% Beta-Carotene [4, 10]: 0.532%
% Beta-Carotene [4, 11]: 0.427%
% Beta-Carotene [4, 12]: 0.245%
% Beta-Carotene [4, 13]: 0.267%
% Beta-Carotene [4, 15]: 0.273%
Compound: CC1=C(/C=C/C(C)=C/C=C/C(C)=C/C=C/C=C(C)/C=C/C=C(C)/C=C/C2=C(C)CCCC2(C)C)C(C)(C)CCC1 [Beta-carotene, β-carotene]
reported solubility ([1]; in "fats and oils"): 0.05-0.08%

% Astaxanthin by HPLC [5, 16]: 0.2420%
% Astaxanthin by HPLC ([5]; in Carvacrol (clear oil), 282-197, lot 13403CI, listed as astaxanthin): ~0.24%
% Astaxanthin by HPLC [5, 17]: 0.0301%
% Astaxanthin by HPLC [5, 18]: 0.1876%
times less soluble than lutein ([5]; in spearmint oil): 33 times
times less soluble than lutein ([5]; in white thyme oil): 16 times
Compound: CC1=C(/C=C/C(C)=C/C=C/C(C)=C/C=C/C=C(C)/C=C/C=C(C)/C=C/C2=C(C)C(=O)[C@@H](O)CC2(C)C)C(C)(C)C[C@H](O)C1=O [Astaxanthin, astaxanthin]

% Canthaxanthin by HPLC [6, 16]: 0.0020%
% Canthaxanthin by HPLC [6, 17]: 0.0028%
% Canthaxanthin by HPLC [6, 18]: 0.0036%
Compound: CC1=C(/C=C/C(C)=C/C=C/C(C)=C/C=C/C=C(C)/C=C/C=C(C)/C=C/C2=C(C)C(=O)CCC2(C)C)C(C)(C)CCC1=O [Canthaxanthin, canthaxanthin]
